Experimental data as given in patent publication US11667631B2, “FGFR4 inhibitor, preparation method therefor, and applications thereof” (Jiangsu Hansoh Pharmaceutical Group Co., Ltd., priority 2016, dated 2023).

What was measured:
FGFR1 kinase = FGFR1 kinase (Homo sapiens (Human), UniProt P11362); assay: Enzymologic experiment of FGFR1 (TR-FRET); type: biochemical; conditions: FGFR1 kinase activity
Procedure: In this experiment, the inhibitory effect of the compounds on FGFR1 kinase activity was tested by a fluorescence resonance energy transfer (TR-FRET) method, and the half maximal inhibitory concentration (IC50) of the compounds on the FGFR1 kinase activity was determined.
1) 1˜5 μL of FGFR1 enzyme solution was added to a 384-well plate, and the final concentration of the enzyme was 0.1˜5 nM.
2) 1˜5 μL of diluted solution in gradient of the compound was added.
3) 1˜5 μL of a substrate mixture containing substrate polypeptide with a final concentration of 5˜50 nM and ATP with a final concentration of 10˜200 μM was added.
4) The mixture was incubated for 0.5˜3 hours at room temperature.
5) 10 μL of EDTA and a test solution comprising labeled antibody were added, and the plate was incubated for 1 hour at room temperature.
6) The fluorescence signal values of each plate were determined by a microplate reader at 665 nm.
7) The inhibition rates were calculated according to the fluorescence signal values.
8) The IC50 of the compound was obtained by curve fitting according to the inhibition rates at different concentrations, and the enzymatic activity of the specific example compounds is shown in Table 1.

HuH-7 cells = assay: Inhibition of HuH-7 cell proliferation (CellTiter-Glo); type: cell-based; conditions: Homo sapiens, Huh-7, 72 h, read-out: HuH-7 IC50
Procedure: In this experiment, the inhibitory effect of the compounds on HuH-7 cell proliferation was tested by a CellTiter-Glo method, and the half maximal inhibitory concentration (IC50) of the compounds on the activity of cell proliferation was determined.
1) A 96-well cell culture plate was seeded with 50˜100 μL of HuH-7 cell suspension at a density of 1˜5×10^4 cells/ml. The culture plate was incubated in an incubator for 16˜24 hours (37° C., 5% CO2).
(§1) 2) Different concentrations of the test compound in a gradient dilution were added to the cells in the culture plate. The culture plate was incubated in an incubator for 72 hours (37° C., 5% CO2).
3) 50˜100 μL of CellTiter-Glo reagent was added to each well. Then, the culture plate was shaken or left to stand for 5˜30 minutes at room temperature.
(§2) 4) The chemiluminescence signal values of each plate were determined by a microplate reader.
(§3) 5) The inhibition rates were calculated according to the chemiluminescence signal values.
(§4) 6) The IC50 of the compound was obtained by curve fitting according to the inhibition rates at different concentrations, and the cell activity of the specific example compounds is shown in Table 2.

SK-HEP-1 cells = assay: Inhibition of SK-HEP-1 cell proliferation (CellTiter-Glo); type: cell-based; conditions: Homo sapiens, SK-HEP1, 72 h, read-out: SK-HEP-1 IC50
Procedure: In this experiment, the inhibitory effect of the compounds on SK-HEP-1 cell proliferation was tested by a CellTiter-Glo method, and the half maximal inhibitory concentration (IC50) of the compounds on the activity of cell proliferation was determined.
1) A 96-well cell culture plate was seeded with 50˜100 μL of SK-HEP-1 cell suspension at a density of 1˜5×10^4 cells/ml. The culture plate was incubated in an incubator for 16˜24 hours (37° C., 5% CO2).
as §1
(§5) 3) 50˜100 μL of CellTiter-Glo reagent were added to each well. Then, the culture plate was shaken or left to stand for 5˜30 minutes at room temperature.
as §2, §3, §4

Hep 3B cells = assay: Inhibition of Hep 3B cell proliferation (CellTiter-Glo); type: cell-based; conditions: Homo sapiens, Hep3B, 72 h, read-out: Hep 3B IC50, Hep 3B cell proliferation, 72 hours, CellTiter-Glo
Procedure: In this experiment, the inhibitory effect of the compounds on Hep 3B cell proliferation was tested by a CellTiter-Glo method, and the half maximal inhibitory concentration (IC50) of the compounds on the activity of cell proliferation was determined.
1) A 96-well cell culture plate was seeded with 50˜100 μL of Hep 3B cell suspension at a density of 1˜5×10^4 cells/ml. The culture plate was incubated in an incubator for 16˜24 hours (37° C., 5% CO2).
as §1, §5, §2, §3

[1] = Pharmacokinetic (PK) analysis in rats; type: in vivo, Sprague Dawley (SD) rats; conditions: SD rats, single intragastric administration, 5 mg/kg; for Peak Time tmax: (sampling in hours); for AUC(0-t) / AUC(0-inf) / half-life / MRT / Cmax: Sprague-Dawley, rat, plasma, po; for AUC(0-t): read-out: Area Under Curve AUC0-t; for AUC(0-inf): read-out: Area Under Curve AUC0-∞; for half-life: read-out: Half-Time t1/2 (converted); for MRT: read-out: Mean Residence Time MRT; for Cmax: read-out: Plasma Concentration Cmax
Procedure: 1) 0.2 ml of intravenous blood was collected and placed in a K2EDTA test tube. The blood was centrifuged at room temperature at the speed of 1000˜3000×g for 5˜20 minutes to isolate the plasma, which was then stored at −80° C.
2) 160 μL of acetonitrile was added to 40 μL of plasma sample for precipitation, and then the mixture was centrifuged at the speed of 500˜2000×g for 5˜20 minutes.
3) 100 μL of treated solution was taken, and the concentration of the test compound was analyzed by LC/MS/MS. The LC/MS/MS analytical instrument was AB Sciex API 4000. • Liquid chromatography analysis: • Condition of Liquid chromatography: Shimadzu LC-20AD pump • Chromatographic column: phenomenex Gemiu 5 um C18 50×4.6 mm • Mobile phase: Solution A is 0.1% formic acid aqueous solution, and Solution B is acetonitrile • Flow rate: 0.8 mL/min • Elution time: 0-3.5 minutes, the eluent was used as follows: […]

Chain of FGFR1 kinase (P11362 22-822): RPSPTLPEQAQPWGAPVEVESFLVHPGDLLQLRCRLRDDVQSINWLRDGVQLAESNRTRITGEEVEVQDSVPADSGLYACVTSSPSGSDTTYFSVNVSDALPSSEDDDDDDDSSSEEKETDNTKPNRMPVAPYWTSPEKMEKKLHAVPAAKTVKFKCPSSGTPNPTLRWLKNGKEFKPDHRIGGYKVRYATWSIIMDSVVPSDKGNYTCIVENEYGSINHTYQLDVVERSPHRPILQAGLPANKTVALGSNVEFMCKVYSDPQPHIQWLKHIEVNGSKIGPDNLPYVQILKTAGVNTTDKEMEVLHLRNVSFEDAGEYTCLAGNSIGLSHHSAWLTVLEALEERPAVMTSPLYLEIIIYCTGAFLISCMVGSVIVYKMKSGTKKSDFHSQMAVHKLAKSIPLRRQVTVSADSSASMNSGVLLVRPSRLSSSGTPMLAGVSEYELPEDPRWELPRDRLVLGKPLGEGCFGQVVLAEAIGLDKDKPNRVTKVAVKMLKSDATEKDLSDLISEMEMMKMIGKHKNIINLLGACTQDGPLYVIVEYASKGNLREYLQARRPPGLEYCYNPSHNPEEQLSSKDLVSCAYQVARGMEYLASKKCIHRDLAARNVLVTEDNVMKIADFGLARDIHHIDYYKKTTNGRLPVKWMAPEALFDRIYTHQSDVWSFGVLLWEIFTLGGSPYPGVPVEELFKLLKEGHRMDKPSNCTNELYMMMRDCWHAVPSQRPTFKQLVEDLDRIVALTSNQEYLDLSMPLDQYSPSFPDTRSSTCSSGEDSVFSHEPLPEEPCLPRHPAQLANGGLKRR

Row | Compound | IC50 (FGFR1 kinase) | IC50 (HuH-7 cells) | IC50 (SK-HEP-1 cells) | IC50 (Hep 3B cells) | Peak Time tmax [1] | AUC(0-t) [1] | AUC(0-inf) [1] | half-life [1] | MRT [1] | Cmax [1]
1 | CO[C@@H]1CCCC1Oc1cc(NC(=O)N2CCCc3cc(CN4CCOCC4=O)c(C=O)nc32)ncc1C#N (stereo partly drawn) [Example 16, N-(5-Cyano-4-(((trans)-2-methoxycyclopentyl)oxy)pyridin-2-yl)-7-formyl-6-((3-carbonylmorpholino)methyl)-3,4-dihydro-1,8-naphthyridin-1(2H)-carboxamide] | > 10000 nM | 13.2 nM | > 10000 nM | 10.5 nM | 2 h | 5520 ng·h/mL | 5610 ng·h/mL | 1.02 h | 2.96 h | 1600 ng/mL
2 | CO[C@@H]1CCN(c2cc(NC(=O)N3CCCc4cc(CN5C(=O)OC[C@@H]5C)c(C=O)nc43)ncc2C#N)C1 [Example 38, N-(5-Cyano-4-((R)-3-methoxypyrrolidin-1-yl)pyridin-2-yl)-7-formyl-6-(((S)-4-methyl-2-carbonyloxazolidin-3-yl)methyl)-3,4-dihydro-1,8-naphthyridin-1(2H)-carboxamide] | > 10000 nM | 11.8 nM | > 10000 nM | 13.3 nM | 2 h | 2400 ng·h/mL | 2540 ng·h/mL | 1.38 h | 3.91 h | 2660 ng/mL
3 | CO[C@H]1CCN(c2cc(NC(=O)N3CCCc4cc(CN5CCOCC5=O)c(C=O)nc43)ncc2C#N)C1 [Example 51, (S)-N-(5-Cyano-4-(3-methoxypyrrolidin-1-yl)pyridin-2-yl)-7-formyl-6-((3-carbonylmorpholino)methyl)-3,4-dihydro-1,8-naphthyridin-1(2H)-carboxamide] | > 10000 nM | 27.5 nM | > 10000 nM | 25.1 nM | 2 h | 3720 ng·h/mL | 3730 ng·h/mL | 1.15 h | 3.84 h | 1020 ng/mL
4 | COCCSc1cc(NC(=O)N2CCCc3cc(CN4CCOCC4=O)c(C=O)nc32)ncc1C#N [Example 13, N-(5-Cyano-4-((2-methoxyethyl)thio)pyridin-2-yl)-7-formyl-6-((3-carbonylmorpholino)methyl)-3,4-dihydro-1,8-naphthyridin-1(2H)-carboxamide] | > 10000 nM | 32.3 nM | > 10000 nM | 20.8 nM | 2 h | 3510 ng·h/mL | 3570 ng·h/mL | 1.16 h | 2.8 h | 1200 ng/mL
5 | COC1CCN(c2cc(NC(=O)N3CCCc4cc(CN5CCOCC5=O)c(C=O)nc43)ncc2C#N)C1 (centres unmarked) [Example 4, N-(5-Cyano-4-(3-methoxypyrrolidin-1-yl)pyridin-2-yl)-7-formyl-6-((3-carbonylmorpholino)methyl)-3,4-dihydro-1,8-naphthyridin-1(2H)-carboxamide] | > 10000 nM | 18.4 nM | > 10000 nM | 2.5 nM | 2 h | 8740 ng·h/mL | 8740 ng·h/mL | 0.61 h | 3.07 h | 3370 ng/mL
6 | CO[C@@H]1CCC1Oc1cc(NC(=O)N2CCCc3cc(CN4CCOCC4=O)c(C=O)nc32)ncc1C#N (stereo partly drawn) [Example 61, N-(5-Cyano-4-trans-((1,2)-2-methoxycyclobutoxy)pyridin-2-yl)-7-formyl-6-((3-carbonylmorpholino)methyl)-3,4-dihydro-1,8-naphthyridin-1(2H)-carboxamide] | > 10000 nM | 6.2 nM | > 10000 nM | 3.7 nM | 2 h | 2110 ng·h/mL | 2120 ng·h/mL | 0.75 h | 2.96 h | 2640 ng/mL
7 | CO[C@@H]1CCN(c2cc(NC(=O)N3CCCc4cc(CN5CCOC5=O)c(C=O)nc43)ncc2C#N)C1 [Example 41, (R)-N-(5-Cyano-4-(3-methoxypyrrolidin-1-yl)pyridin-2-yl)-7-formyl-6-((2-carbonyloxazolidin-3-yl)methyl)-3,4-dihydro-1,8-naphthyridin-1(2H)-carboxamide] | > 10000 nM | 10.2 nM | > 10000 nM | 9.9 nM | 2 h | 2880 ng·h/mL | 2960 ng·h/mL | 1.17 h | 3.12 h | 1920 ng/mL
8 | CO[C@@H]1CCC[C@H]1Nc1cc(NC(=O)N2CCCc3cc(CN4CCOCC4=O)c(C=O)nc32)ncc1C#N [Example 60, N-(5-Cyano-4-(((1R,2R)-2-methoxycyclopentyl)amino)pyridin-2-yl)-7-formyl-6-((3-carbonylmorpholino)methyl)-3,4-dihydro-1,8-naphthyridin-1(2H)-carboxamide] | > 10000 nM | 2.7 nM | > 10000 nM | 1 nM | 2 h | 3770 ng·h/mL | 3790 ng·h/mL | 0.88 h | 2.26 h | 1300 ng/mL
9 | CO[C@H]1CCN(c2cc(NC(=O)N3CCCc4cc(CN5CCOC5=O)c(C=O)nc43)ncc2C#N)C1 [Example 40, (S)-N-(5-Cyano-4-(3-methoxypyrrolidin-1-yl)pyridin-2-yl)-7-formyl-6-((2-carbonyloxazolidin-3-yl)methyl)-3,4-dihydro-1,8-naphthyridin-1(2H)-carboxamide] | > 10000 nM | 29.6 nM | > 10000 nM | 38.7 nM | 2 h | 1080 ng·h/mL | 1100 ng·h/mL | 1.05 h | 3.36 h | 1560 ng/mL
10 | COCC1(Nc2cc(NC(=O)N3CCCc4cc(CN5CCOCC5=O)c(C=O)nc43)ncc2C#N)CC1 [Example 11] | > 10000 nM | 12.4 nM | > 10000 nM | 8.4 nM | 2 h | 3890 ng·h/mL | 3960 ng·h/mL | 1.16 h | 2.68 h | 1540 ng/mL
11 | CO[C@H]1CCN(c2cc(NC(=O)N3CCCc4cc(CN5C(=O)OC[C@@H]5C)c(C=O)nc43)ncc2C#N)C1 [Example 39, N-(5-Cyano-4-((S)-3-methoxypyrrolidin-1-yl)pyridin-2-yl)-7-formyl-6-(((S)-4-methyl-2-carbonyloxazolidin-3-yl)methyl)-3,4-dihydro-1,8-naphthyridin-1(2H)-carboxamide] | > 10000 nM | 34.6 nM | > 10000 nM | 39.3 nM | – | – | – | – | – | –
